Data from patent publication US20060281755A1, “SYNERGISTIC MODULATION OF FLT3 KINASE USING AMINOPYRIMIDINES KINASE MODULATORS” (priority 2005, published 2006).

What was measured:
MV4-11 AML cells = test: 72-hour cell proliferation assay and combination index analysis, MV4-11; type: cell-based, human; conditions: with single sub-IC50 dose of FLT3 inhibitor Compound A (50 nM)
Baf3-ITD cells = test: 72-hour cell proliferation assay and combination index analysis, Baf3-ITD; type: cell-based, murine; conditions: with single sub-IC50 dose of FLT3 inhibitor Compound A (50 nM)
Method: Dose responses for the individual compounds alone were determined for each cell line using a standard 72-hour cell proliferation assay (see FIGS. 6.1-6.8). […] Each of these chemically distinct compounds alone has potential for the treatment of disorders related to FLT3, such as FLT3 positive AML. […] The FLT3 inhibitors tested had no effect on THP-1 proliferation. […] (See FIGS. 10.1-10.8 and Tables 1-3, hereafter.)
To statistically evaluate the synergy of a FLT3 inhibitor and an FTI in FLT3 dependent cell lines, dosing combinations were evaluated by the method of Chou and Talalay. See Chou T C, Talalay P. (1984) “Quantitative analysis of dose-effect relationships: the combined effects of multiple drugs or enzyme inhibitors.” Adv Enzyme Regul. 22:27-55. Using this method inhibitors are added simultaneously to cells in a ratio of the IC50 dose of each compound alone. […] Using this method, multiple FTI and FLT3 combinations were evaluated. […]
Combination Index Analysis. To determine growth inhibition synergy of a FTI and FLT3 inhibitor combination based on the method of Chou and Talalay (Chou and Talalay. See Chou T C, Talalay P. (1984) “Quantitative analysis of dose-effect relationships: the combined effects of multiple drugs or enzyme inhibitors.” Adv Enzyme Regul. 22:27-55.), fixed ratio combination dosing with isobolar statistical analysis was performed. […]

MV4-11 tumor xenografts = test: MV4-11 human tumor xenograft regression model in nude mice; type: in vivo; conditions: 50 mg/kg bid oral
Method: Female athymic nude mice (CD-1, nu/nu, 9-10 weeks old) were obtained from Charles River Laboratories (Wilmington, Mass.) and were maintained according to NIH standards. All mice were group housed (5 mice/cage) under clean-room conditions in sterile micro-isolator cages on a 12-hour light/dark cycle in a room maintained at 21-22° C. and 40-50% humidity. Mice were fed irradiated standard rodent diet and water ad libitum. All animals were housed in a Laboratory Animal Medicine facility that is fully accredited by the American Association for Assessment and Accreditation of Laboratory Animal Care (AAALAC). […]
The time course of the inhibitory effects of FLT3 inhibitor compounds on the growth of MV4-11 tumors is illustrated in FIG. 1. […] Percent inhibition (% 1) of tumor growth was calculated versus tumor growth in the vehicle-treated Control group on the last study day. Statistical significance versus Control was determined by Analysis of Variance (ANOVA) followed by Dunnett's t-test: * p<0.05; ** p<0.01.
(See FIG. 2). […] Percent Inhibition was calculated versus the mean tumor weight in the vehicle-treated control group. Statistical significance versus Control was determined by ANOVA followed by Dunnett's t-test: ** p<0.01. […]

[1] = patients with relapsed and refractory AML; cited from earlier work

Compound: Cn1cncc1C(N)(c1ccc(Cl)cc1)c1ccc2c(c1)c(-c1cccc(Cl)c1)cc(=O)n2C (single isomer, unassigned; (+)) [Tipifarnib, (+)-6-[amino(4-chlorophenyl)(1-methyl-1H-imidazol-5-yl)methyl]-4-(3-chlorophenyl)-1-methyl-2(1H)-quinolinone]
- increase in potency of Tipifarnib (MV4-11 AML cells): more than 3 fold
- increase in potency of Tipifarnib (Baf3-ITD cells): more than 3 fold
- effect on tumor growth as single agent (MV4-11 tumor xenografts; 9 days): ineffective
- effect on tumor growth as single agent (MV4-11 tumor xenografts; 16 days): ineffective
- response rate [1]: ~30%
